How the values were obtained:
Format in all cases: biochemical
Human FXIa = Human FXIa (Homo sapiens (Human), UniProt P03951); experiment: Determination of the % inhibition for FXIa (fluorogenic substrate Z-Gly-Pro-Arg-AFC; 40 μM or IC50)
Method: Selected compounds were further screened for inhibitory activity against the related enzyme FXIa. The ability of the compounds of formula (I) to inhibit FXIa may be determined using the following biological assay:
Determination of the % Inhibition for FXIa
(§1) FXIa inhibitory activity in vitro was determined using standard published methods (see e.g. Johansen et al., Int. J. Tiss. Reac. 1986, 8, 185; Shori et al., Biochem. Pharmacol., 1992, 43, 1209; Sturzebecher et al., Biol. Chem. Hoppe-Seyler, 1992, 373, 1025). Human FXIa (Enzyme Research Laboratories) was incubated at 25° C. with the fluorogenic substrate Z-Gly-Pro-Arg-AFC and 40 μM of the test compound (or alternatively at various concentrations of the test compound in order to determine IC50). Residual enzyme activity (initial rate of reaction) was determined by measuring the change in optical absorbance at 410 nm and the IC50 value for the test compound was determined.

Human plasma kallikrein = Human plasma kallikrein (Homo sapiens (Human), UniProt P03952); experiment: Determination of the IC50 for plasma kallikrein (fluorogenic substrate H-DPro-Phe-Arg-AFC); conditions: class symbols A-D, read-out: IC50 (human PKal)
Chain of Human plasma kallikrein (P03952 391-638): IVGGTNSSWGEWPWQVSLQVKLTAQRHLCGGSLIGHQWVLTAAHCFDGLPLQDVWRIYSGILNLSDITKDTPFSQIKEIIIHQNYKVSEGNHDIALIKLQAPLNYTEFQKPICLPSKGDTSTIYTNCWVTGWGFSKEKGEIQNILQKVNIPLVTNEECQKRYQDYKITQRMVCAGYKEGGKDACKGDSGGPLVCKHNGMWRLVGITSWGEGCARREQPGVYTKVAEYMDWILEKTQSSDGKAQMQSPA
Chain of Human plasma kallikrein (P03952 20-390 partner): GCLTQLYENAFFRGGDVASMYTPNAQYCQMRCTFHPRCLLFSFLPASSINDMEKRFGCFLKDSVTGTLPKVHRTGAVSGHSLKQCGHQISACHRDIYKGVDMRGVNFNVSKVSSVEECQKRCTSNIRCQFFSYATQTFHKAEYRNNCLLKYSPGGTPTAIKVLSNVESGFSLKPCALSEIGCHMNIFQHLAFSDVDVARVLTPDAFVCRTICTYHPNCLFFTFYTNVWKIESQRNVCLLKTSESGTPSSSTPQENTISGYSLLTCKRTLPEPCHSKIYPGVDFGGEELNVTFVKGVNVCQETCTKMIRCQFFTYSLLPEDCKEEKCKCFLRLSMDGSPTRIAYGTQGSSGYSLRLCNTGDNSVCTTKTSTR
Method: The ability of the compounds of formula (I) to inhibit plasma kallikrein may be determined using the following biological assay:
Determination of the IC50 for Plasma Kallikrein
as §1, with “Plasma kallikrein” for “FXIa”, “plasma kallikrein (Protogen)” for “FXIa (Enzyme Research Laboratories)”, “H-DPro-Phe-Arg-AFC” for “Z-Gly-Pro-Arg-AFC”, “and” for “and 40 μM of the test compound (or alternatively at”, “compound.” for “compound in order to determine IC50).”

Human KLK1 = Human KLK1 (Homo sapiens (Human), UniProt P06870); experiment: Determination of the IC50 for KLK1 (fluorogenic substrate H-DVal-Leu-Arg-AFC)
Chain of Human KLK1 (P06870 25-262): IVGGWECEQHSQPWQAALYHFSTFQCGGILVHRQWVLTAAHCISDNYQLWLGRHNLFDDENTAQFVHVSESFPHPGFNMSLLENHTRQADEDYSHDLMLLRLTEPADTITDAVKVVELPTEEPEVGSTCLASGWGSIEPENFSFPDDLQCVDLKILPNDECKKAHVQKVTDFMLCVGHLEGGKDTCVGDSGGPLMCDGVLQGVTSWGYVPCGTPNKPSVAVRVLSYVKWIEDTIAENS
Method: Selected compounds were further screened for inhibitory activity against the related enzyme KLK1. The ability of the compounds of formula (I) to inhibit KLK1 may be determined using the following biological assay:
Determination of the IC50 for KLK1
as §1, with “KLK1” for “FXIa”, “KLK1 (Callbiochem)” for “FXIa (Enzyme Research Laboratories)”, “H-DVal-Leu-Arg-AFC” for “Z-Gly-Pro-Arg-AFC”, “and” for “and 40 μM of the test compound (or alternatively at”, “compound.” for “compound in order to determine IC50).”

Chain of Human FXIa (P03951 388-625): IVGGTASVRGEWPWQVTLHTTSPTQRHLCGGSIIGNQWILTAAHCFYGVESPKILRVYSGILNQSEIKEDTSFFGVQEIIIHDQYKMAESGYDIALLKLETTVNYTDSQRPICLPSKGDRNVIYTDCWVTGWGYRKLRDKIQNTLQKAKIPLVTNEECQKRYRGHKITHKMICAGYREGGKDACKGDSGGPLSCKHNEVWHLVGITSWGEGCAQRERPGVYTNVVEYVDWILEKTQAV
Chain of Human FXIa (P03951 19-387 partner): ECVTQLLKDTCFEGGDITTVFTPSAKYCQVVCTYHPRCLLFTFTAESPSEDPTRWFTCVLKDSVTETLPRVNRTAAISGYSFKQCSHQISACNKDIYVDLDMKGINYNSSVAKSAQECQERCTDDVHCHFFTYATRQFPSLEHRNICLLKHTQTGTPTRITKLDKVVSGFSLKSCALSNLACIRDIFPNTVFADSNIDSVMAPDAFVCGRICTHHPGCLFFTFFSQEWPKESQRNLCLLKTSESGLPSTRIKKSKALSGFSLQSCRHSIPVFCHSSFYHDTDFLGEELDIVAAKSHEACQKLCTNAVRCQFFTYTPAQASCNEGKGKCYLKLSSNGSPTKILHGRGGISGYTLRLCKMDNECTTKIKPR

| Structure (SMILES) | IC50 (Human FXIa) [µM] | IC50 (Human plasma kallikrein) [µM] | IC50 (Human KLK1) [µM] |
| --- | --- | --- | --- |
| COc1ccc(-n2cnc(C(F)(F)F)n2)c(CNC(=O)c2cnn(Cc3ccc4c(c3)CN(C)CC4)c2)c1F [Example 31, N-({2-fluoro-3-methoxy-6-[3-(trifluoromethyl)-1,2,4-triazol-1-yl]phenyl}methyl)-1-[(2-methyl-3,4-dihydro-1H-isoquinolin-7-yl)methyl]pyrazole-4-carboxamide] | 34.6 | < 0.01 | > 40 |
| COc1ccc(-n2cnc(C(F)(F)F)n2)c(CNC(=O)c2cnn(Cc3ccc4c(c3)CN(C(C)C)CC4)c2)c1F [Example 32, N-({2-fluoro-3-methoxy-6-[3-(trifluoromethyl)-1,2,4-triazol-1-yl]phenyl}methyl)-1-[(2-isopropyl-3,4-dihydro-1H-isoquinolin-7-yl)methyl]pyrazole-4-carboxamide] | 19.6 | < 0.01 | > 40 |
| COCc1nn(Cc2ccc3c(c2)CCN(C2CC2)C3)cc1C(=O)NCc1c(-n2cnc(C(F)F)n2)ccc(OC)c1F [Example 47, 1-[(2-cyclopropyl-3,4-dihydro-1H-isoquinolin-6-yl)methyl]-N-({6-[3-(difluoromethyl)-1,2,4-triazol-1-yl]-2-fluoro-3-methoxyphenyl}methyl)-3-(methoxymethyl)pyrazole-4-carboxamide] | > 40 | 0.03 to 0.1 | > 40 |
| COCc1nn(Cc2ccc3c(c2)CCN(C2CC2)C3)cc1C(=O)NCc1c(-n2cnc(C(F)(F)F)n2)ccc(OC)c1F [Example 48, 1-[(2-cyclopropyl-3,4-dihydro-1H-isoquinolin-6-yl)methyl]-N-({2-fluoro-3-methoxy-6-[3-(trifluoromethyl)-1,2,4-triazol-1-yl]phenyl}methyl)-3-(methoxymethyl)pyrazole-4-carboxamide] | > 40 | 0.03 to 0.1 | > 40 |
| COCc1nn(Cc2ccc3c(c2)CCN(C2CC2)C3)cc1C(=O)NCc1c(-n2ccc(C#N)n2)ccc(OC)c1F [Example 49, N-{[6-(3-cyanopyrazol-1-yl)-2-fluoro-3-methoxyphenyl]methyl}-1-[(2-cyclopropyl-3,4-dihydro-1H-isoquinolin-6-yl)methyl]-3-(methoxymethyl)pyrazole-4-carboxamide] | > 40 | 0.01 to 0.03 | > 40 |
| CCN1CCc2cc(Cn3cc(C(=O)NCc4c(-n5ccc(C#N)n5)ccc(OC)c4F)c(COC)n3)ccc2C1 [Example 52, N-{[6-(3-cyanopyrazol-1-yl)-2-fluoro-3-methoxyphenyl]methyl}-1-[(2-ethyl-3,4-dihydro-1H-isoquinolin-6-yl)methyl]-3-(methoxymethyl)pyrazole-4-carboxamide] | > 40 | < 0.01 | > 40 |
| COCc1nn(Cc2ccc3c(c2)CNC3)cc1C(=O)NCc1c(-n2cc(C)nn2)ccc(OC)c1F [Example 53, 1-(2,3-dihydro-1H-isoindol-5-ylmethyl)-N-{[2-fluoro-3-methoxy-6-(4-methyl-1,2,3-triazol-1-yl)phenyl]methyl}-3-(methoxymethyl)pyrazole-4-carboxamide] | > 4 | 0.03 to 0.1 | > 4 |
| CCN1Cc2ccc(Cn3cc(C(=O)NCc4c(-n5cc(C)nn5)ccc(OC)c4F)c(COC)n3)cc2C1 [Example 56, 1-[(2-ethyl-1,3-dihydroisoindol-5-yl)methyl]-N-{[2-fluoro-3-methoxy-6-(4-methyl-1,2,3-triazol-1-yl)phenyl]methyl}-3-(methoxymethyl)pyrazole-4-carboxamide] | 16.3 | < 0.01 | > 40 |
| COCc1nn(Cc2ccc3c(c2)CN(C)C3)cc1C(=O)NCc1c(-n2cnc(C(F)F)n2)ccc(OC)c1F [Example 57, N-({6-[3-(difluoromethyl)-1,2,4-triazol-1-yl]-2-fluoro-3-methoxyphenyl}methyl)-3-(methoxymethyl)-1-[(2-methyl-1,3-dihydroisoindol-5-yl)methyl]pyrazole-4-carboxamide] | 28.8 | < 0.01 | > 40 |
| COCc1nn(Cc2ccc3c(c2)CN(C)C3)cc1C(=O)NCc1c(-n2cnc(C(F)(F)F)n2)ccc(OC)c1F [Example 58, N-({2-fluoro-3-methoxy-6-[3-(trifluoromethyl)-1,2,4-triazol-1-yl]phenyl}methyl)-3-(methoxymethyl)-1-[(2-methyl-1,3-dihydroisoindol-5-yl)methyl]pyrazole-4-carboxamide] | 17 | < 0.01 | > 40 |
| COCc1nn(Cc2ccc3c(c2)CN(C(C)C)C3)cc1C(=O)NCc1c(-n2cnc(C(F)F)n2)ccc(OC)c1F [Example 59, N-({6-[3-(difluoromethyl)-1,2,4-triazol-1-yl]-2-fluoro-3-methoxyphenyl}methyl)-1-[(2-isopropyl-1,3-dihydroisoindol-5-yl)methyl]-3-(methoxymethyl)pyrazole-4-carboxamide] | > 40 | < 0.01 | > 40 |
| COCc1nn(Cc2ccc3c(c2)CN(C(C)C)C3)cc1C(=O)NCc1c(-n2cnc(C(F)(F)F)n2)ccc(OC)c1F [Example 60, N-({2-fluoro-3-methoxy-6-[3-(trifluoromethyl)-1,2,4-triazol-1-yl]phenyl}methyl)-1-[(2-isopropyl-1,3-dihydroisoindol-5-yl)methyl]-3-(methoxymethyl)pyrazole-4-carboxamide] | > 40 | < 0.01 | > 40 |
| COc1ccc(-n2cc(C)nn2)c(CNC(=O)c2cn(Cc3cn4c(n3)CN(C)CC4)nc2C(F)(F)F)c1F [Example 61, N-{[2-fluoro-3-methoxy-6-(4-methyl-1,2,3-triazol-1-yl)phenyl]methyl}-1-({7-methyl-5H,6H,8H-imidazo[1,2-a]pyrazin-2-yl}methyl)-3-(trifluoromethyl)pyrazole-4-carboxamide] | > 40 | 0.03 to 0.1 | > 40 |
| COCc1nn(Cc2cnc3c(c2Cl)CCN(C)C3)cc1C(=O)NCc1c(-n2cc(C)nn2)ccc(OC)c1F [Example 64, 1-[(4-chloro-7-methyl-6,8-dihydro-5H-1,7-naphthyridin-3-yl)methyl]-N-{[2-fluoro-3-methoxy-6-(4-methyl-1,2,3-triazol-1-yl)phenyl]methyl}-3-(methoxymethyl)pyrazole-4-carboxamide] | > 40 | 0.03 to 0.1 | > 40 |
| COCc1nn(Cc2ccc3c(c2)CCOC3)cc1C(=O)NCc1c(-n2cc(C)nn2)ccc(OC)c1F [Example 68, 1-(3,4-dihydro-1H-2-benzopyran-6-ylmethyl)-N-{[2-fluoro-3-methoxy-6-(4-methyl-1,2,3-triazol-1-yl)phenyl]methyl}-3-(methoxymethyl)pyrazole-4-carboxamide] | > 40 | 0.01 to 0.03 | > 40 |
| COCc1nn(Cc2cc3n(n2)CCN(C)C3)cc1C(=O)NCc1c(-n2cc(C)nn2)ccc(OC)c1F [Example 70, N-{[2-fluoro-3-methoxy-6-(4-methyl-1,2,3-triazol-1-yl)phenyl]methyl}-3-(methoxymethyl)-1-({5-methyl-4H,6H,7H-pyrazolo[1,5-a]pyrazin-2-yl}methyl)pyrazole-4-carboxamide] | > 40 | 0.01 to 0.03 | > 40 |

From patent US11613527B2, “Enzyme inhibitors” (KalVista Pharmaceuticals Limited, priority 2019, dated 2023)
